Experimental data reported in patent EP4725946A1, “IRAK4 DEGRADATION AGENT AND USE THEREOF” (Guangzhou Unirise Pharmaceutical Co., Ltd., priority 2023, dated 2024).
Read-outs that look alike come from different tables or passages of the source.

Target: T1, IRAK4 protein (Homo sapiens, UniProt Q9NWZ3)
T1 sequence (Q9NWZ3 1-460): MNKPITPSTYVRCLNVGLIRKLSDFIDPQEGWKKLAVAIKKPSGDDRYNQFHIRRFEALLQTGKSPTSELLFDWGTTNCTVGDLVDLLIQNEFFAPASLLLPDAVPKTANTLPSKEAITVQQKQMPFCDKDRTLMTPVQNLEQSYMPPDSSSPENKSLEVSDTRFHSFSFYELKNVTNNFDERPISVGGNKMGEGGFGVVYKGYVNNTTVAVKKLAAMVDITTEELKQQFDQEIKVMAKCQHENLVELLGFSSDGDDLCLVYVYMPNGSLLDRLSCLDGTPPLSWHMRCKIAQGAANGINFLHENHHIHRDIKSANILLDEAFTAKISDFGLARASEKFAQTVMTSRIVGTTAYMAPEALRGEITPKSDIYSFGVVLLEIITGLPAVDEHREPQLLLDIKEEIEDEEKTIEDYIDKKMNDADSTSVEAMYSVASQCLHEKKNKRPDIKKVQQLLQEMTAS
Assay: IRAK4 Degradation Assay in THP-1 Cells (Western Blot)
Assay type: cell-based
Parameters: endogenous in cells; host or cells: THP-1 cells
Settings: 24 hours, 0.0128 to 1000 nM, IRAK4 protein level by Western Blot; for Dmax: read-out: Dmax%
Experimental: In a 6-well cell culture plate, an appropriate number of THP-1 cells were seeded. The plate was placed in a 5% CO2 incubator at 37°C for overnight culture. Then, the test compound's dimethyl sulfoxide solution was added, with the final concentration ranging from 0.0128 to 1000 nM. After continuous culture for 24 hours, the culture medium was removed, and the cells were collected in a 1.5 mL centrifuge tube. After adding lysis buffer and grinding thoroughly, the mixture was placed on ice for 30 minutes. It was then centrifuged at 15,000 xg and 4°C for 20 minutes. The supernatant was taken, and the level of IRAK4 protein was detected by Western Blot.

Row | Compound | Dmax (THP-1, THP-1 cells) | DC50 (THP-1 cells, read-out: DC50) | Dmax% (THP-1 cells) | Dmax (THP-1 cells) | DC50 (THP-1 cells)
1 | Cn1c(=O)n(C2CCC(=O)NC2=O)c2cccc(C#CCO[C@H]3CC[C@H](C(=O)N4CCC5(CC4)Cc4cc(NC(=O)c6cnn7cccnc67)c(N6CCC(CO)CC6)cc4O5)CC3)c21 (relative stereo) [Compound 74] | 86.2% | 2.78 nM | – | – | –
2 | O=C1CCC(N2Cc3cc(N4CCC(CN5CCC6(CC5)Cc5cc(NC(=O)c7cnn8cccnc78)c(N7CCC(CO)CC7)cc5O6)CC4)ccc3C2=O)C(=O)N1 (single isomer, unassigned) [Example 84] | 88.3% | 1.13 nM | – | – | –
3 | O=C1CCC(N2Cc3cc(N4CCC(CN5CCC6(CC5)Cc5cc(NC(=O)c7cnn8cccnc78)c(N7CCC(CO)CC7)cc5O6)CC4)ccc3C2=O)C(=O)N1 (single isomer, unassigned) [Example 85] | – | 0.66 nM | 89.8% | – | –
4 | Cn1c(=O)n(C2CCC(=O)NC2=O)c2cccc(CN3CCC(CCN4CCC5(CC4)Cc4cc(NC(=O)c6cnn7cccnc67)c(N6CCC(CO)CC6)cc4O5)CC3)c21 (stereo not shown) [Compound 1] | 91.9% | 1.09 nM | – | – | –
5 | Cn1c(=O)n(C2CCC(=O)NC2=O)c2cccc(CN3CCC(CCN4CCC5(CC4)Cc4cc(NC(=O)c6coc7cccnc67)c(N6CCC(CO)CC6)cc4O5)CC3)c21 (stereo not shown) [Compound 3] | – | 4.14 nM | – | 93.5% | –
6 | Cn1c(=O)n(C2CCC(=O)NC2=O)c2cccc(CN3CCC(CCN4CCC5(CC4)Cc4cc(NC(=O)c6cnn7cccnc67)c(N6CCN(CC(F)F)CC6)cc4O5)CC3)c21 (stereo not shown) [Compound 6] | – | 9.65 nM | – | 85.1% | –
7 | Cn1c(=O)n(C2CCC(=O)NC2=O)c2cccc(CN3CCC(CCN4CCC5(CC4)Oc4cc(NC(=O)c6coc7cccnc67)c(N6CCC(CO)CC6)cc4O5)CC3)c21 (stereo not shown) [Compound 14] | – | 3.4 nM | – | 89.2% | –
8 | Cn1c(=O)n(C2CCC(=O)NC2=O)c2cccc(C#CCOC3CCN(CCN4CCC5(CC4)Cc4cc(NC(=O)c6cnn7cccnc67)c(N6CCC(CO)CC6)cc4O5)CC3)c21 (stereo not shown) [Compound 19] | 87.9% | 2.18 nM | – | – | –
9 | Cn1c(=O)n(C2CCC(=O)NC2=O)c2cccc(C#CCOC3CCN(CCN4CCC5(CC4)Cc4cc(NC(=O)c6coc7cccnc67)c(N6CCC(CO)CC6)cc4O5)CC3)c21 (stereo not shown) [Compound 21] | – | 3.58 nM | – | 91.6% | –
10 | Cn1c(=O)n(C2CCC(=O)NC2=O)c2cccc(C#CCOC3CCN(CCN4CCC5(Cc6cc(NC(=O)c7coc8cccnc78)c(N7CCC(CO)CC7)cc6O5)C4)CC3)c21 (stereo not shown) [Compound 23] | – | 3.08 nM | – | 88.3% | –
11 | Cn1c(=O)n(C2CCC(=O)NC2=O)c2cccc(C#CCOC3CCN(CCN4CCC5(CC4)Oc4cc(NC(=O)c6cnn7cccnc67)c(N6CCC(CO)CC6)cc4O5)CC3)c21 (stereo not shown) [Compound 28] | – | 3.38 nM | – | 86.5% | –
12 | Cn1c(=O)n(C2CCC(=O)NC2=O)c2cccc(C#CCOC3CCN(CCN4CCC5(CC4)Oc4cc(NC(=O)c6coc7cccnc67)c(N6CCC(CO)CC6)cc4O5)CC3)c21 (stereo not shown) [Compound 29] | – | 7.12 nM | – | 92.8% | –
13 | Cn1c(=O)n(C2CCC(=O)NC2=O)c2cccc(CN3CCC4(CC3)CN(CCN3CCC5(CC3)Cc3cc(NC(=O)c6cnn7cccnc67)c(N6CCC(CO)CC6)cc3O5)C4)c21 (stereo not shown) [Compound 32] | – | – | – | 95.4% | 1.53 nM
14 | Cn1c(=O)n(C2CCC(=O)NC2=O)c2cccc(CN3CC4(CCN(CCN5CCC6(CC5)Cc5cc(NC(=O)c7cnn8cccnc78)c(N7CCC(CO)CC7)cc5O6)CC4)C3)c21 (stereo not shown) [Compound 33] | – | – | – | 94.8% | 1.66 nM
15 | COCC1CCN(c2cc3c(cc2NC(=O)c2cnn4cccnc24)CC2(CCN(C[C@H]4CC[C@H](OCC#Cc5cccc6c5n(C)c(=O)n6C5CCC(=O)NC5=O)CC4)CC2)O3)CC1 (stereo partly shown) [Compound 44] | – | 6.38 nM | – | 84.9% | –
16 | Cn1c(=O)n(C2CCC(=O)NC2=O)c2cccc(C#CCO[C@H]3CC[C@H](CN4CCC5(Cc6cc(NC(=O)c7cnn8cccnc78)c(N7CCC(CO)CC7)cc6O5)C4)CC3)c21 (stereo partly shown) [Compound 51] | – | 2 nM | – | 83.9% | –

Row | Compound | Dmax (THP-1, THP-1 cells) | DC50 (THP-1 cells, read-out: DC50) | Dmax% (THP-1 cells) | Dmax (THP-1 cells) | DC50 (THP-1 cells)
17 | Cn1c(=O)n(C2CCC(=O)NC2=O)c2cccc(C#CCO[C@H]3CC[C@H](CN4CCC5(CC4)Cc4cc(NC(=O)c6coc7cccnc67)c(N6CCC(CO)CC6)cc4C5)CC3)c21 (stereo partly shown) [Compound 52] | – | 5.25 nM | – | 89.2% | –
18 | Cn1c(=O)n(C2CCC(=O)NC2=O)c2cccc(C#CCO[C@H]3CC[C@H](CN4CCC5(CC4)Cc4cc(NC(=O)c6cnn7cccnc67)c(N6CCC(CO)CC6)cc4C5)CC3)c21 (stereo partly shown) [Compound 53] | – | 2.77 nM | – | 77.5% | –
19 | Cn1c(=O)n(C2CCC(=O)NC2=O)c2cccc(C#CCO[C@H]3CC[C@H](CN4CCC5(Cc6cc(NC(=O)c7coc8cccnc78)c(N7CCC(CO)CC7)cc6O5)C4)CC3)c21 (stereo partly shown) [Compound 54] | – | 3.5 nM | – | 91.1% | –
20 | Cn1c(=O)n(C2CCC(=O)NC2=O)c2cccc(C#CCO[C@H]3CC[C@@H](CN4CCC5(CC4)Cc4cc(NC(=O)c6coc7cccnc67)c(N6CCC(CO)CC6)cc4O5)CC3)c21 (stereo partly shown) [Compound 56] | – | 7.79 nM | – | 90.4% | –
21 | Cn1c(=O)n(C2CCC(=O)NC2=O)c2cccc(C#CCO[C@H]3CC[C@@H](CN4CCC5(Cc6cc(NC(=O)c7cnn8cccnc78)c(N7CCC(CO)CC7)cc6O5)C4)CC3)c21 (stereo partly shown) [Compound 58] | – | 3.69 nM | – | 85.6% | –
22 | Cn1c(=O)n(C2CCC(=O)NC2=O)c2cccc(C#CCOCCNCCN3CCC4(CC3)Cc3cc(NC(=O)c5cnn6cccnc56)c(N5CCC(CO)CC5)cc3O4)c21 (stereo not shown) [Compound 59] | 88.6% | 1.17 nM | – | – | –
23 | Cn1nc(N2CCC(=O)NC2=O)c2cccc(CN3CCC(CCN4CCC5(CC4)Cc4cc(NC(=O)c6coc7cccnc67)c(N6CCC(CO)CC6)cc4O5)CC3)c21 [Compound 62] | 82.8% | 7.34 nM | – | – | –
24 | O=C1CCC(N2Cc3c(CN4CCC(CCN5CCC6(CC5)Cc5cc(NC(=O)c7cnn8cccnc78)c(N7CCC(CO)CC7)cc5O6)CC4)cccc3C2=O)C(=O)N1 (stereo not shown) [Compound 64] | 89.3% | 1.3 nM | – | – | –
25 | O=C1CCC(N2C(=O)c3cc(F)c(N4CCC(CCN5CCC6(CC5)Cc5cc(NC(=O)c7cnn8cccnc78)c(N7CCC(CO)CC7)cc5O6)CC4)cc3C2=O)C(=O)N1 (stereo not shown) [Compound 72] | 92.6% | 7.7 nM | – | – | –
26 | COC1(CN2CCC3(CC2)Cc2cc(NC(=O)c4cnn5cccnc45)c(N4CCC(CO)CC4)cc2O3)CCN(c2cccc3c2n(C)c(=O)n3C2CCC(=O)NC2=O)CC1 (stereo not shown) [Example 79] | 89.5% | 1.55 nM | – | – | –
27 | Cn1c(=O)n(C2CCC(=O)NC2=O)c2cccc(C3CC(CN4CCC5(CC4)Cc4cc(NC(=O)c6cnn7cccnc67)c(N6CCC(CO)CC6)cc4O5)C3)c21 (stereo not shown) [Example 80] | 83.4% | 0.64 nM | – | – | –
28 | Cn1c(=O)n(C2CCC(=O)NC2=O)c2cccc(N3CCC(O)(CC(=O)N4CCC5(CC4)Cc4cc(NC(=O)c6cnn7cccnc67)c(N6CCC(CO)CC6)cc4O5)CC3)c21 (stereo not shown) [Example 81] | 90.2% | 1.02 nM | – | – | –
29 | O=C1CCC(N2C(=O)c3ccc(N4CCC(CN5CCC6(CC5)Cc5cc(NC(=O)c7cnn8cccnc78)c(N7CCC(CO)CC7)cc5O6)CC4)cc3C2=O)C(=O)N1 (stereo not shown) [Example 82] | 85.6% | 3.44 nM | – | – | –
30 | Cn1c(=O)n(C2CCC(=O)NC2=O)c2cccc(C#CCO[C@H]3CC[C@H](CN4CCC5(CC4)Cc4cc(NC(=O)c6cnn7cc(Cl)cnc67)c(N6CCC(O)CC6)cc4O5)CC3)c21 (stereo partly shown) [Example 86] | – | 2.98 nM | – | 86.2% | –
31 | Cn1c(=O)n(C2CCC(=O)NC2=O)c2cccc(C#CCO[C@H]3CC[C@H](CN4CCC5(CC4)Cc4cc(NC(=O)c6cnn7cc(C#N)cnc67)c(N6CCC(CO)CC6)cc4O5)CC3)c21 (stereo partly shown) [Example 87] | – | 4.06 nM | – | 90% | –
32 | Cc1cc(-c2nc(C(=O)Nc3cc4c(cc3N3CCC(O)CC3)OC3(CCN(C[C@H]5CC[C@H](OCC#Cc6cccc7c6n(C)c(=O)n7C6CCC(=O)NC6=O)CC5)CC3)C4)co2)ccn1 (stereo partly shown) [Example 88] | – | 5.4 nM | – | 89% | –
